Measured values published in PubChem BioAssay (NCI).
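Tested at 5 concentrations; 48 h exposure; 96-well plates; endpoints linearly interpolated, else capped at highest concentration. TGI marks complete inhibition of growth.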

How the values were obtained:
Assay in all cases: growth of human tumour cells (NCI), 48 h
SF-268 CNS = test system: SF-268 CNS
SN12C renal = test system: SN12C renal
M14 melanoma = test system: M14 melanoma
MOLT-4 leukemia = test system: MOLT-4 leukemia
EKVX NSCLC = test system: EKVX NSCLC
HCT-116 colon = test system: HCT-116 colon
SW-620 colon = test system: SW-620 colon
IGROV1 ovarian = test system: IGROV1 ovarian
UO-31 renal = test system: UO-31 renal
RXF 393 renal = test system: RXF 393 renal
HOP-92 NSCLC = test system: HOP-92 NSCLC
786-0 renal = test system: 786-0 renal
ACHN renal = test system: ACHN renal
RPMI-8226 leukemia = test system: RPMI-8226 leukemia
T-47D breast = test system: T-47D breast
OVCAR-5 ovarian = test system: OVCAR-5 ovarian
SNB-19 CNS = test system: SNB-19 CNS
TK-10 renal = test system: TK-10 renal
MDA-N = test system: MDA-N
SK-MEL-2 melanoma = test system: SK-MEL-2 melanoma
NCI-H460 lung = test system: NCI-H460 lung
KM12 colon = test system: KM12 colon
HT29 colon = test system: HT29 colon
PC-3 prostate = test system: PC-3 prostate
SK-MEL-5 melanoma = test system: SK-MEL-5 melanoma
UACC-257 melanoma = test system: UACC-257 melanoma
COLO 205 colon = test system: COLO 205 colon
NCI-H522 lung = test system: NCI-H522 lung
SR leukemia = test system: SR leukemia
HCT-15 colon = test system: HCT-15 colon
HCC-2998 colon = test system: HCC-2998 colon
SK-MEL-28 melanoma = test system: SK-MEL-28 melanoma
A498 renal = test system: A498 renal
CAKI-1 renal = test system: CAKI-1 renal
OVCAR-4 ovarian = test system: OVCAR-4 ovarian
U251 CNS = test system: U251 CNS
SK-OV-3 ovarian = test system: SK-OV-3 ovarian
HS 578T breast = test system: HS 578T breast
MDA-MB-435 = test system: MDA-MB-435
MDA-MB-231 breast = test system: MDA-MB-231 breast
OVCAR-3 ovarian = test system: OVCAR-3 ovarian
K-562 leukemia = test system: K-562 leukemia
MCF7 breast = test system: MCF7 breast
HOP-62 NSCLC = test system: HOP-62 NSCLC
MALME-3M melanoma = test system: MALME-3M melanoma
DU-145 prostate = test system: DU-145 prostate
NCI-H226 lung = test system: NCI-H226 lung
UACC-62 melanoma = test system: UACC-62 melanoma
CCRF-CEM leukemia = test system: CCRF-CEM leukemia
NCI/ADR-RES ovarian = test system: NCI/ADR-RES ovarian
NCI-H23 lung = test system: NCI-H23 lung
OVCAR-8 ovarian = test system: OVCAR-8 ovarian
SF-295 CNS = test system: SF-295 CNS
BT-549 breast = test system: BT-549 breast
LOX IMVI melanoma = test system: LOX IMVI melanoma
SF-539 CNS = test system: SF-539 CNS
HL-60(TB) leukemia = test system: HL-60(TB) leukemia
A549 NSCLC = test system: A549 NSCLC
SNB-75 CNS = test system: SNB-75 CNS

In the case of `Nc1nc(-c2cc(-c3cccc4ccccc34)nc(N)n2)cc(-c2cccc3ccccc23)n1`, the TGI (SF-268 CNS) is reported as > 100 µM, the TGI (SN12C renal) is reported as > 100 µM and the TGI (M14 melanoma) is reported as > 100 µM. For the same compound, the TGI (MOLT-4 leukemia) was > 100 µM, the TGI (EKVX NSCLC) was > 100 µM and the TGI (HCT-116 colon) was > 100 µM. The TGI (SW-620 colon) was > 100 µM, the TGI (IGROV1 ovarian) was > 100 µM and the TGI (UO-31 renal) was > 100 µM. The TGI (RXF 393 renal) was > 100 µM, the TGI (HOP-92 NSCLC) was > 100 µM and the TGI (786-0 renal) was > 100 µM. For the same compound, the TGI (ACHN renal) was > 100 µM, the TGI (RPMI-8226 leukemia) was > 100 µM and the TGI (T-47D breast) was > 100 µM. The TGI (OVCAR-5 ovarian) was > 100 µM, the TGI (SNB-19 CNS) was > 100 µM and the TGI (TK-10 renal) was > 100 µM. The TGI (MDA-N) was > 100 µM, the TGI (SK-MEL-2 melanoma) was > 100 µM and the TGI (NCI-H460 lung) was > 100 µM. For the same compound, the TGI (KM12 colon) was > 100 µM, the TGI (HT29 colon) was > 100 µM and the TGI (PC-3 prostate) was > 100 µM. For the same compound, the TGI (SK-MEL-5 melanoma) was > 100 µM, the TGI (UACC-257 melanoma) was > 100 µM and the TGI (COLO 205 colon) was > 100 µM. For the same compound, the TGI (NCI-H522 lung) was > 100 µM, the TGI (SR leukemia) was > 100 µM and the TGI (HCT-15 colon) was > 100 µM. For the same compound, the TGI (HCC-2998 colon) was > 100 µM, the TGI (SK-MEL-28 melanoma) was > 100 µM and the TGI (A498 renal) was > 100 µM. The TGI (CAKI-1 renal) was > 100 µM, the TGI (OVCAR-4 ovarian) was > 100 µM and the TGI (U251 CNS) was > 100 µM. The TGI (SK-OV-3 ovarian) was > 100 µM, the TGI (HS 578T breast) was > 100 µM and the TGI (MDA-MB-435) was > 100 µM. For the same compound, the TGI (MDA-MB-231 breast) was > 100 µM, the TGI (OVCAR-3 ovarian) was > 100 µM and the TGI (K-562 leukemia) was > 100 µM. For the same compound, the TGI (MCF7 breast) was > 100 µM, the TGI (HOP-62 NSCLC) was > 100 µM and the TGI (MALME-3M melanoma) was > 100 µM. The TGI (DU-145 prostate) was > 100 µM, the TGI (NCI-H226 lung) was > 100 µM and the TGI (UACC-62 melanoma) was > 100 µM. For the same compound, the TGI (CCRF-CEM leukemia) was > 100 µM, the TGI (NCI/ADR-RES ovarian) was > 100 µM and the TGI (NCI-H23 lung) was > 100 µM. For the same compound, the TGI (OVCAR-8 ovarian) was > 100 µM, the TGI (SF-295 CNS) was > 100 µM and the TGI (BT-549 breast) was > 100 µM. For the same compound, the TGI (LOX IMVI melanoma) was > 100 µM, the TGI (SF-539 CNS) was > 100 µM and the TGI (HL-60(TB) leukemia) was > 100 µM. For the same compound, the TGI (A549 NSCLC) was > 100 µM.
With `CC1CC(C(=O)OC2OC(COC3OC(CO)C(OC4OC(C)C(O)C(O)C4O)C(O)C3O)C(O)C(O)C2O)C2CCC3(C)C(=CCC4(C)C3CCC3C(C)(CO)C(O)C(O)CC34C)C2C1C` (stereo not drawn) the TGI (SF-268 CNS) was 37.8 µM, the TGI (SN12C renal) was 37 µM and the TGI (M14 melanoma) was > 100 µM. The TGI (MOLT-4 leukemia) was 41.4 µM, the TGI (EKVX NSCLC) was > 10 µM and the TGI (HCT-116 colon) was 41.7 µM. For the same compound, the TGI (SW-620 colon) was 88.3 µM, the TGI (IGROV1 ovarian) was 33.2 µM and the TGI (UO-31 renal) was > 100 µM. It also gave a TGI (SNB-75 CNS) of 32.5 µM, a TGI (HOP-92 NSCLC) of 34.6 µM and a TGI (786-0 renal) of 51.5 µM. For the same compound, the TGI (ACHN renal) was > 10 µM, the TGI (RPMI-8226 leukemia) was 49.2 µM and the TGI (T-47D breast) was 35 µM. The TGI (OVCAR-5 ovarian) was 66.7 µM, the TGI (SNB-19 CNS) was 32 µM and the TGI (TK-10 renal) was > 100 µM. For the same compound, the TGI (MDA-N) was 36.4 µM, the TGI (SK-MEL-2 melanoma) was 42.2 µM and the TGI (NCI-H460 lung) was 66.6 µM. For the same compound, the TGI (KM12 colon) was 33.4 µM, the TGI (HT29 colon) was 41.1 µM and the TGI (PC-3 prostate) was 84.6 µM. For the same compound, the TGI (SK-MEL-5 melanoma) was 33 µM, the TGI (UACC-257 melanoma) was > 10 µM and the TGI (COLO 205 colon) was 32.7 µM. For the same compound, the TGI (NCI-H522 lung) was 30.1 µM, the TGI (SR leukemia) was 41 µM and the TGI (HCT-15 colon) was > 100 µM. The TGI (HCC-2998 colon) was 40.8 µM, the TGI (SK-MEL-28 melanoma) was 33.5 µM and the TGI (A498 renal) was > 10 µM. The TGI (CAKI-1 renal) was > 100 µM, the TGI (OVCAR-4 ovarian) was 37.3 µM and the TGI (U251 CNS) was 33.5 µM. For the same compound, the TGI (SK-OV-3 ovarian) was > 100 µM, the TGI (HS 578T breast) was 35.5 µM and the TGI (MDA-MB-435) was 34.5 µM. For the same compound, the TGI (MDA-MB-231 breast) was 34 µM, the TGI (OVCAR-3 ovarian) was 60.4 µM and the TGI (K-562 leukemia) was > 100 µM. For the same compound, the TGI (MCF7 breast) was 53 µM, the TGI (HOP-62 NSCLC) was 37.2 µM and the TGI (DU-145 prostate) was > 100 µM. The TGI (NCI-H226 lung) was 80.1 µM, the TGI (UACC-62 melanoma) was 32.7 µM and the TGI (CCRF-CEM leukemia) was 52.2 µM. The TGI (NCI/ADR-RES ovarian) was > 100 µM, the TGI (NCI-H23 lung) was 33.3 µM and the TGI (OVCAR-8 ovarian) was 32.3 µM. For the same compound, the TGI (SF-295 CNS) was 82.8 µM, the TGI (BT-549 breast) was 32.3 µM and the TGI (LOX IMVI melanoma) was 58.8 µM. For the same compound, the TGI (SF-539 CNS) was 38 µM, the TGI (HL-60(TB) leukemia) was 45.8 µM and the TGI (A549 NSCLC) was > 100 µM.
For `CC(=O)OC1[C@@H](OC(C)=O)CN(OCc2ccccc2)C[C@H]1OC(C)=O` (stereo partly drawn), the TGI (SF-268 CNS) was > 100 µM, the TGI (SN12C renal) was > 100 µM and the TGI (M14 melanoma) was > 100 µM. For the same compound, the TGI (MOLT-4 leukemia) was > 100 µM, the TGI (EKVX NSCLC) was > 100 µM and the TGI (HCT-116 colon) was > 100 µM. For the same compound, the TGI (SW-620 colon) was > 100 µM, the TGI (IGROV1 ovarian) was > 100 µM and the TGI (UO-31 renal) was > 100 µM. The TGI (RXF 393 renal) was > 100 µM, the TGI (SNB-75 CNS) was > 100 µM and the TGI (HOP-92 NSCLC) was > 100 µM. The TGI (786-0 renal) was > 100 µM, the TGI (ACHN renal) was > 100 µM and the TGI (RPMI-8226 leukemia) was > 100 µM. For the same compound, the TGI (T-47D breast) was > 100 µM, the TGI (OVCAR-5 ovarian) was > 100 µM and the TGI (SNB-19 CNS) was > 100 µM. The TGI (TK-10 renal) was > 100 µM, the TGI (MDA-N) was > 100 µM and the TGI (SK-MEL-2 melanoma) was > 100 µM. For the same compound, the TGI (NCI-H460 lung) was > 100 µM, the TGI (KM12 colon) was > 100 µM and the TGI (HT29 colon) was > 100 µM. The TGI (PC-3 prostate) was > 100 µM, the TGI (SK-MEL-5 melanoma) was > 100 µM and the TGI (UACC-257 melanoma) was > 100 µM. For the same compound, the TGI (COLO 205 colon) was > 100 µM, the TGI (NCI-H522 lung) was > 100 µM and the TGI (SR leukemia) was > 100 µM. For the same compound, the TGI (HCT-15 colon) was > 100 µM, the TGI (HCC-2998 colon) was > 100 µM and the TGI (SK-MEL-28 melanoma) was > 100 µM. The TGI (A498 renal) was > 100 µM, the TGI (CAKI-1 renal) was > 100 µM and the TGI (OVCAR-4 ovarian) was > 100 µM. The TGI (U251 CNS) was > 100 µM, the TGI (SK-OV-3 ovarian) was 76.4 µM and the TGI (HS 578T breast) was > 100 µM. For the same compound, the TGI (MDA-MB-435) was > 100 µM, the TGI (MDA-MB-231 breast) was > 100 µM and the TGI (OVCAR-3 ovarian) was > 100 µM. The TGI (K-562 leukemia) was > 100 µM, the TGI (MCF7 breast) was > 100 µM and the TGI (HOP-62 NSCLC) was > 100 µM. The TGI (DU-145 prostate) was > 100 µM, the TGI (NCI-H226 lung) was > 100 µM and the TGI (UACC-62 melanoma) was > 100 µM. For the same compound, the TGI (CCRF-CEM leukemia) was > 100 µM, the TGI (NCI/ADR-RES ovarian) was > 100 µM and the TGI (NCI-H23 lung) was > 100 µM. For the same compound, the TGI (OVCAR-8 ovarian) was > 100 µM, the TGI (SF-295 CNS) was > 100 µM and the TGI (BT-549 breast) was > 100 µM. For the same compound, the TGI (LOX IMVI melanoma) was > 100 µM, the TGI (SF-539 CNS) was > 100 µM and the TGI (HL-60(TB) leukemia) was > 100 µM. For the same compound, the TGI (A549 NSCLC) was > 100 µM.
